# Article PMC10286459 (Cell & Bioscience, 2023)
# No end group written: not given here.
# Legend:
# full-length FOXM1 = target: T1, full-length FOXM1 (Homo sapiens, UniProt Q08050); assay: Biotin-peptide Pulldown with Streptavidin Magnetic Beads; assay type: binding; settings: biotin-labeled peptide, cell lysates (500 µg) with endogenous or exogenous FOXM1; Western Blotting
# T1 sequence (Q08050 703-763 limits assumed): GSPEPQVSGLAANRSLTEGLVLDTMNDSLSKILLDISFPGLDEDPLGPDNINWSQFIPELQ
# Protocol: (§1) SDS-PAGE gel electrophoresis and Coomassie brilliant blue staining were performed to measure peptide stability. […] Cells were collected at different post-treatment time points (0, 1, 2, 4, 8, 16, 24, 36, 48 h). […] D The docking of peptide P22 (106–126) to the FOXM1 C-terminus (PDB ID 6OSW) was created by Rosetta FlexPepDock and PyMOL. Left, the interface of peptide-protein interaction, the peptide was shown in cyan, and the C-terminus of FOXM1 was shown according to its electrostatic potential. Right, hydrogen bonds are formed by residues at the interface of peptide and protein interaction. […] Streptavidin magnetic beads were added to lysates to pull down the biotin-peptides/protein complexes. […] M1-21mut was used as the control.
# [1] = target: T2, Flag-GFP-FOXM1(688–748) protein (Homo sapiens, UniProt Q08050); assay: as above; assay type: binding; settings: biotin-labeled peptide, 293T cell lysates (500 µg) expressing Flag-GFP-FOXM1(688–748); Western Blotting
# T2 construct: expressing exogenous Flag-GFP-FOXM1(688-748) protein; expressed in transfected cells; host or cells: 293T (HEK-293T) cell lysates
# T2 sequence (Q08050 688-748 isoform Q08050-2): T1 sequence (Q08050 703-763 limits assumed)
# Source text: Fig. 1 Screening of TAT-106-126 peptide targeting FOXM1 protein. A An in silico peptide library (P1 to P24, 21-mer) was created from the FOXM1 N-terminus sequence (1-138aa) with a 5 amino acid shift window. The peptide candidates binding to FOXM1 C-terminus (PDB ID 6OSW) were selected by Rosetta FlexPepDock simulation and InterfaceAnalyzer calculation according to docking free energy (dG). B P20, P21, and P22 fused with the cell-penetrating TAT sequence (TAT-96-116, TAT-101-121, and TAT-106-126) were produced by solid-phase peptide synthesis. […] Data points indicated the fraction of GFP-M1(688–748)-bound peptides (ΔFNormal/Amplitude) at different concentrations and curves indicated the calculated fits. The error bars represented the standard error of three independent measurements. […] 48 h Later, trypan blue (0.4%) was added to each well for 3 min and the cells were fixed to 4% paraformaldehyde for imaging. […] The mean IC50 value (µM) for each peptide was obtained from three replicates. D The TAT-106-126 peptide was biotin-labeled and added to 293T cell lysates (500 µg) expressing exogenous Flag-GFP-FOXM1(688–748) protein. The lysates were incubated with Streptavidin magnetic beads to pull down biotin-peptide/protein complexes. Biotin and Flag-GFP-FOXM1(688–748) protein in samples were detected by Western Blotting. […] E Biotin-labeled TAT-106-126 or TAT was added to 293T cell lysates (500 µg). The lysates were incubated with Streptavidin magnetic beads to pull down biotin-peptide/protein complexes. Biotin and endogenous FOXM1 protein were detected by Western Blotting.
# A Biotin-labeled peptides TAT-96-116, TAT-101-121, and TAT-106-126 were added to 293T cell lysates (500 µg) expressing exogenous Flag-GFP-FOXM1(688-748) protein (or Flag-GFP control lysates). The lysates were incubated with Streptavidin magnetic beads to pull down biotin-peptide/protein complexes. Biotin and Flag-GFP-FOXM1(688-748) protein in samples were detected by Western Blotting. […] Biotin and exogenous FOXM1 protein were detected by Western Blotting.
# [2] = target: T3, interaction between FOXM1 and PLK1 (Homo sapiens, UniProt Q08050); assay: Co-IP in 231-Flag-FOXM1-Ind cells; assay type: cell-based; settings: doxycycline 200 ng/mL 24 h, M1-21 10, 20 µM or TAT-106-126 20, 40, 80 µM for 6 h
# T3 construct: expressed in transfected cells; host or cells: MDA-MB-231 stably infected with pLVX-TetOne-Flag-FOXM1b lentivirus (231-Flag-FOXM1-Ind), doxycycline-induced
# T3 sequence (Q08050 1-748 isoform Q08050-2): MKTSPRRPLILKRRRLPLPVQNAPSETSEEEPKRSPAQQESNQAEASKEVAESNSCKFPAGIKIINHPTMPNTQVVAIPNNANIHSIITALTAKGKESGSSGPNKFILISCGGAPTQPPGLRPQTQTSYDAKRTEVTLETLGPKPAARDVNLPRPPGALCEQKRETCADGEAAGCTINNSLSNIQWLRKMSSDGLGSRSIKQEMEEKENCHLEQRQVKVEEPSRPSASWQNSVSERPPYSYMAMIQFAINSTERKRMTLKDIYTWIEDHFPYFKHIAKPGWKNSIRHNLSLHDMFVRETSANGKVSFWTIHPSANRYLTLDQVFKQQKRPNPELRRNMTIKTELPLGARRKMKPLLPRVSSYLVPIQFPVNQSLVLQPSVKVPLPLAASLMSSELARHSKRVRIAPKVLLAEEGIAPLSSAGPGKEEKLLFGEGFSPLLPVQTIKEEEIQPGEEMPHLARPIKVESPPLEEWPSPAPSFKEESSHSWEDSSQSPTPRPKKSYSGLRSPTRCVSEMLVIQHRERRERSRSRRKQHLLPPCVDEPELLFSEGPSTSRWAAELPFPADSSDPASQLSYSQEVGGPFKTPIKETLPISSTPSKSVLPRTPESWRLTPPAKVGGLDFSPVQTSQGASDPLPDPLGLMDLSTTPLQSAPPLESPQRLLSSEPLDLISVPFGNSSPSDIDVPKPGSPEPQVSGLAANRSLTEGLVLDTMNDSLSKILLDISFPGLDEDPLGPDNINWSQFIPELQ
# Source text: Number of repetitions = 3. […] Number of repetitions = 3. […] Number of repetitions = 3. […] GAPDH was used as a loading control.
# MDA-MB-231 cells = assay: Half-life of biotin-labeled peptides in living cells (Western blotting); assay type: in vitro ADME, human; settings: biotin-labeled peptide 20 µM for 2 h, then fresh medium, cells collected 0-48 h, β-actin loading control
# Protocol: as §1
Sequence,binding to full-length FOXM1 in Pulldown (full-length FOXM1),binding to FOXM1 C-terminus in Pulldown [1],interaction between FOXM1 and PLK1 (Co-IP) [2],Half-life in living MDA-MB-231 cells (MDA-MB-231 cells) [h]
GRKKRRQRRRSGPNKFILISCGGAPTQPPGL [TAT-101-121],neither of them effectively bound,interacted,–,–
GRKKRRQRRRFILISCGGAPTQPPGLRPQTQ [TAT-106-126],capable of binding,capable of binding,comparable activity to M1-21,6.2
GRKKRRQRRRKESGSSGPNKFILISCGGAPT [TAT-96-116],neither of them effectively bound,interacted,–,–
